From US20030236288A1, “Use of substituted 3-phenyl-5-alkoxy-3H-(1,3,4)-oxadizol-2-ones for inhibiting pancreatic lipase” (priority 2002, published 2003)

Molecular target: T1, pancreatic lipase (PL) (Sus scrofa, UniProt P00591)
T1 construct: Enriched preparation from porcine pancreas; purchased Sigma L-0382; host or cells: porcine pancreas (tissue preparation)
T1 sequence (P00591 1-450): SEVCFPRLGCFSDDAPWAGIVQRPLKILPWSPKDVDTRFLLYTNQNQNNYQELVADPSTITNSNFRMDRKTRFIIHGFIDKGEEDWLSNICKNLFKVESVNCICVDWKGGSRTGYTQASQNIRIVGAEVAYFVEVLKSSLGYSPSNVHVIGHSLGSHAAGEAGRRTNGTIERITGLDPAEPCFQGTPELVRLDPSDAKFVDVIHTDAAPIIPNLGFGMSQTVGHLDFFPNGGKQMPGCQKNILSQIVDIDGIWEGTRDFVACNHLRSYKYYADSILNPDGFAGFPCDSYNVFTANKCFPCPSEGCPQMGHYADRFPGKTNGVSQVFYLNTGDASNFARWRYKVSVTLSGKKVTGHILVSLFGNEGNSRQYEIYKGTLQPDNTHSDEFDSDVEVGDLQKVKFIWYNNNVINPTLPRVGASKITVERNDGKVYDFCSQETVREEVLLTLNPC
Test: Pancreatic lipase inhibition assay (release of radiolabeled oleate from glycerol tri[9,10(n)-3H]oleate/tripalmitin substrate)
Format: biochemical
Conditions: enriched lipase preparation from porcine pancreas; 30° C., 30 min; up to 8 concentrations
Protocol: The activity of the compounds was assayed as follows:
1. Preparation of the substrate:
80 μL of tripalmitin (85 mM in chloroform) are mixed with 5 μL of glycerol tri[9,10(n)-^3H]oleate (5 mCi/mL in toluene) in a 12 mL polypropylene vessel. Evaporation in a rotary evaporator (50° C.) and addition of 4 mL of 200 mM Tris/HCl (pH 7.6), 0.8% TX-100 are followed by ultrasound treatment of the mixture (Branson B-12 sonifier, output level 4, 3×2 min with 1 min intervals on ice) until a homogeneous milky suspension is produced.
Lipase buffer: 80 mM Tris/HCl (pH 7.6), 600 mM NaCl, 8 mM CaCl2, 8 mM benzamidine, 2 mM Pefabloc (Roche Biochemicals) (add the inhibitors only on the day of the assay)
Pancreatic lipase: Enriched preparation from porcine pancreas (Sigma order No. L-0382) dissolved in lipase buffer (100 000 units/500 μL)
5 μL of test substance (in 100% DMSO) or DMSO (control) are mixed with 10 μL of substrate and 5 μL of lipase (in this sequence) and incubated at 30° C. (Eppendorf Thermomixer, 350 min^−1) for 30 min. After addition of 325 μL of methanol/chloroform/n-heptane (10/9/7) and 105 μl of 0.1 M K2CO3, 0.1 M H3BO3 (pH 10.5 adjusted with 1 M KOH) and vigorous mixing, the phases are separated by centrifugation (8000 rpm, Eppendorf centrifuge, 4° C.). 140 μL portions of the aqueous supernatant (contains the liberated radiolabeled oleate; 70% recovery) are transferred into 20 mL scintillation vials and mixed with 6 mL of scintillation cocktail (Beckman Ready Safe). After vigorously mixing and incubating at room temperature for 2 h, the radioactivity is measured in a liquid scintillation counter (Beckman, L8008, tritium channel with quench curve, measurement time 20 min).
Substances are routinely tested in each concentration in three independent incubation mixtures each with duplicate determination after phase separation (SD<0.02). Background values (reaction under the same conditions but without lipase) are subtracted from all values (corresponds predominantly to the content of glycerol trioleate or free oleate in the substrate preparation in the aqueous phase, <5% of the radioactivity employed). The inhibition of the pancreatic lipase enzymatic activity by a test substance is determined by comparison with an uninhibited control reaction (presence of lipase=0% inhibition; absence of lipase 100% inhibition in each case after background correction). The IC50 is calculated from an inhibition plot with up to 8 concentrations of the test substance. The software package GRAPHIT (Elsevier-BIOSOFT) is used for curve fitting and IC50 determination.

IC50 [nM]	SMILES
1500	COc1nn(-c2ccc(NC(=O)c3ccc(C(F)(F)F)cc3)c(OCc3ccccc3)c2)c(=O)o1 [Example 86, 5-Methoxy-3-(3-benzyloxy-4-(4-trifluoromethylbenzoylamino)phenyl)-3H-(1,3,4)-oxadiazol-2-one]
700	CCOc1nn(-c2ccc(OC(F)(F)F)cc2)c(=O)o1 [Example 210, 3-(4-Trifluoromethoxyphenyl)-5-ethoxy-3H-(1,3,4)-oxad iazol-2-one]
500	O=c1oc(OCc2ccccc2)nn1-c1ccc(OC(F)(F)F)cc1 [Example 213, 3-(4-Trifluoromethoxyphenyl)-5-benzyloxy-3H-(1,3,4)-oxad iazol-2-one]
800	COc1nn(-c2cccc(OCc3ccccc3)c2)c(=O)o1 [Example 216, 3-(3-Benzyloxyphenyl)-5-methoxy-3H-(1,3,4)-oxadiazol-2-one]
700	CCOc1nn(-c2cccc(OC(F)(F)F)c2)c(=O)o1 [Example 218, 3-(3-Trifluoromethoxyphenyl)-5-ethoxy-3H-(1,3,4)-oxad iazol-2-one]
1800	CC(C)Oc1nn(-c2cccc(OC(F)(F)F)c2)c(=O)o1 [Example 220, 3-(3-Trifluoromethoxyphenyl)-5-isopropoxy-3H-(1,3,4)-oxadiazol-2-one]

SMILES	IC50 [nM]
CCCCOc1nn(-c2ccc(OC(F)(F)F)cc2)c(=O)o1 [Example 212, 3-(4-Trifluoromethoxyphenyl)-5-butoxy-3H-(1,3,4)-oxadiazol-2-one]	500
COc1nn(-c2ccc(Oc3ccc(Cl)cc3)cc2)c(=O)o1 [Example 229, 3-(4-(4-Chlorophenoxy)phenyl)-5-methoxy-3H-(1,3,4)-oxad iazol-2-one]	600

System: not given
Test: not given
Conditions: not given

melting point	SMILES
83 °C	COc1nn(-c2ccc(Oc3ccccc3)cc2)c(=O)o1
167 °C	COc1nn(-c2ccc(NC(=O)c3ccc(Cl)cc3)c(OCc3ccc(F)cc3)c2)c(=O)o1 [Example 46, 5-Methoxy-3-(4-(4-chlorobenzoylamino)-3-(4-fluorobenzyloxy)phenyl)-3H-(1,3,4)-oxadiazol-2-one]
81 °C	COc1nn(-c2cccc(NC(=O)Nc3ccccn3)c2)c(=O)o1 [Example 59, 5-Methoxy-3-(3-(pyrid-2-yl)aminocarbonylaminophenyl)-3H-(1,3,4)-oxadiazol-2-one]
164 °C	COc1nn(-c2ccc(S(=O)(=O)N3CCOCC3)cc2)c(=O)o1 [Example 208, 3-(4-Morpholinosulfonylphenyl)-5-methoxy-3H-(1,3,4)-oxadiazol-2-one]
52 °C	COc1nn(-c2ccc(OC(F)(F)F)cc2)c(=O)o1 [Example 209, 3-(4-Trifluoromethoxyphenyl)-5-methoxy-3H-(1,3,4)-oxad iazol-2-one]
63 °C	CCOc1nn(-c2ccc(OC(F)(F)F)cc2)c(=O)o1 [Example 210, 3-(4-Trifluoromethoxyphenyl)-5-ethoxy-3H-(1,3,4)-oxad iazol-2-one]
164 °C	COc1nn(-c2ccc(S(=O)(=O)NC3CC(C)CC(C)(C)C3)cc2)c(=O)o1 (centres unmarked) [Example 214, 3-(4-(3,3,5-Trimethylcyclohexylaminosulfonyl)phenyl)-5-methoxy-3H-(1,3,4)-oxadiazol-2-one]
111 °C	CCOc1nn(-c2ccc(OC3CC(C)(C)CC(C)(C)C3)cc2)c(=O)o1 [Example 215, 3-(4-(3,3,5,5-Tetramethylcyclohexyloxy)phenyl)-5-ethoxy-3H-(1,3,4)-oxad iazol-2-one]
89 °C	COc1nn(-c2cccc(Oc3ccccc3)c2)c(=O)o1 [Example 232, 3-(3-Phenoxyphenyl)-5-methoxy-3H-(1,3,4)-oxad iazol-2-one]
50 °C	CCOc1nn(-c2cccc(Oc3ccccc3)c2)c(=O)o1 [Example 233, 3-(3-Phenoxyphenyl)-5-ethoxy-3H-(1,3,4)-oxadiazol-2-one]
68 °C	COc1nn(-c2cccc(OC3CC(C)(C)CC(C)(C)C3)c2)c(=O)o1 [Example 237, 3-(3-(3,3,5,5-Tetramethylcyclohexyloxy)phenyl)-5-methoxy-3H-(1,3,4)-oxadiazol-2-one]
> 260 °C (dec.)	COc1nn(-c2ccc(-c3ccccc3)cc2)c(=O)o1 [Example 238, 3-(4-Phenylphenyl)-5-methoxy-3H-(1,3,4)-oxadiazol-2-one]
47 °C	COc1nn(-c2cccc(COc3cccc(C)c3)c2)c(=O)o1 [Example 239, 3-(3-(3-Methylphenoxymethyl)phenyl)-5-methoxy-3H-(1,3,4)-oxadiazol-2-one]
80 °C	COc1nn(-c2cccc(-c3ccccc3)c2)c(=O)o1 [Example 240, 3-(3-Phenylphenyl)-5-methoxy-3H-(1,3,4)-oxadiazol-2-one]

SMILES	melting point
COc1nn(-c2ccc(Oc3ccc(Cl)cc3)cc2)c(=O)o1 [Example 229, 3-(4-(4-Chlorophenoxy)phenyl)-5-methoxy-3H-(1,3,4)-oxad iazol-2-one]	68 °C
